# Where two headings read alike, the source gives them in different places.
# Columns and labels:
# Raf-1(truncated) = assay: Raf-1 inhibitor screening by chemoluminescence method; assay type: biochemical; conditions: Final concentration 1 x 1.0*10^−5 mol/ml
# From the text: 1. Inhibitory activity of the compound of the present invention on raf kinase
# Raf-1 inhibitor screening by chemoluminescence method
# Westernblot electrophoresis apparatus Rotaryshaker
# Raf-1(truncated), Magnesium/ATP Cocktail, MEK1 unactive
# [1] = test system: human lung cancer cell strain A549; assay: MTT assay, inhibition of growth of human lung cancer cell strain A549; assay type: cell-based
# Method: 4. Using 3-(4,5-dimethylthiazol-2-yl)-2,5-diphenyl tetrazolium bromide assay (MTT) to detect the inhibition effects on the growth of human lung cancer cell strain A549
# [Test materials] MTT working solution, F12 medium containing 10% FBS, continuous injectors
# (§1) [Tested compound] Compounds 1-38
# (§2) [Positive control medicine] Sorafenib, compounds A′, B′, C′ with no substituent or only amino formyl in A ring
# The inhibition rate is calculated as follows:
# (§3) Relative OD value of conrol well=OD value of control well−OD value of blank well
# (§4) Relative OD value of drug well=OD value of drug well−OD value of blank well
# [2] = test system: human high-metastic lung cancer cell 95D; assay: Inhibition of human high-metastic lung cancer cell 95D migration (Boyden Chamber Transwell); assay type: cell-based; conditions: Final concentration 1 x 1.0*10^(−5) mol/L
# Method: 5 Inhibition effects of compounds on human high-metastic lung cancer cell 95D migration
# [Test materials] Boyden Chamber Transwell chamber (with pore size of 8 μm), human high-metastic lung cancer cell 95D cell strain, 1640 medium containing 10% FBS, 1640 medium containing no serum
# as §1, §2
# (§5) The inhibition rate is calculated as follows: […]
# lung cancer cell A549 = assay: Effects on the adhesive ability of lung cancer cell A549; assay type: cell-based, human; conditions: Final concentration 1 x 1.0*10^(−5) mol/L
# Method: 6. Effects of tested compounds on the adhesive ability of lung cancer cell A549
# [Test materials] gelatin, CCK8, poly-lysine (PLL), A549 cell stains, 1640 medium containing 10% FBS
# (§6) [Tested compound] Compounds 1-38 to be tested
# as §2, §5
# Dosing dosing cells without cell group (gelatin adhesive OD/PLL adhesion OD)−Dosing cell group (gelatin adhesive OD/PLL adhesion OD value)
# Dosing dosing cells without cell group (gelatin adhesive OD/PLL adhesion OD value)
# [3] = test system: human umbilical vein endothelial cell HUVEC; assay: Growth of human umbilical vein endothelial cell HUVEC by CCK8 method; assay type: cell-based; conditions: Final concentration 1 x 1.0*10^(−5) mol/L
# From the text: 7. Effects of tested compounds on the growth of human umbilical vein endothelial cell HUVEC cell by CCK8 method
# [Test materials] CCK8, human umbilical vein endothelial cell HUVEC cell, 1640 medium containing 10% FBS
# as §6, §2, §3, §4
# [4] = test system: human umbilical vein endothelial cell HUVEC; assay: Lumen formation ability of HUVEC (Matrigel method); assay type: cell-based; conditions: Final concentration 1 x 1.0*10^(−5) mol/L
# From the text: 8. Inhibition effects of compounds on the lumen formation ability of human umbilical vein endothelial cell HUVEC
# [Experimental principles] The human umbilical vein endothelial cells have ability of spontaneously forming blood lumen on Matrigel, which can be used to simulate the process of angiogenesis in vivo. We used Matrigel method to investigate the effects of the compound on the lumen formation ability of human umbilical vein endothelial cell HUVEC.
# [Test materials] HUVEC (taking generation 3 to 5 cells for experiments after obtained from primary separation and cultured at 37 under the conditions of 5% CO2), Matrigel, cell culture medium M199.
# as §1, §2, §5
# [5] = test system: human lung cancer A549 transplantation tumor; assay type: in vivo; conditions: 60 mg/kg, 6 times every week for 3 weeks; for Relative tumor reproduction rate T/C (%) on human lung cancer A549 transplantation tumor in nude mice: BALB/cA nude mice, Sorafenib oral 60 mg/kg
# Method: 9. Tumor inhibition rate of tested compounds on human lung cancer A549 cell transplantation model in nude mice
# (§7) [Test animals] female BALB/cA nude mice, 35-40 days old, with weight of 18-22g. There were 12 mice in the negative conrol group and 6 mice in the treatment group.
# (§8) The dosage of the compound was 60 mg/kg, 6 times every week for 3 weeks. […] Equal amount of normal saline was administrated in the negative control group. Observe for one week after administration.
# [6] = test system: human liver cancer cell bel-7402 transplantation tumor; assay type: in vivo; conditions: 60 mg/kg, 6 times every week for 3 weeks; for Relative tumor reproduction rate T/C (%) on human liver cancer cell bel-7402 transplantation tumor model in nude mice: BALB/cA nude mice, Sorafenib oral 60 mg/kg
# Method: 10. Tumor inhibition rate of tested compounds on human liver cancer cell bel-7402 transplantation tumor model in nude mice
# as §7, §8
# [7] = test system: renal carcinoma cell line GCR-1 transplanted tumor; assay type: in vivo, BALB/cA nude mice; conditions: 60 mg/kg, 6 times every week for 3 weeks; for Relative tumor reproduction rate T/C (%) on human renal carcinoma GCR-1 cell transplanted tumor model in nude mice: BALB/cA nude mice, Sorafenib oral 60 mg/kg
# Method: 11. Tumor inhibition rate of medicines on renal carcinoma cell line GCR-1 transplanted tumor model in nude mice
# as §7
# [Test method] […] The dosage of the medicine was 60 mg/kg, 6 times every week for 3 weeks. […] Equal amount of normal saline was administrated in the negative control group. Observe for one week after administration.
# mice S180 sarcoma = assay: Experimental therapeutic action on S180 sarcoma mice; conditions: for Tumor growth inhibition rate (%): mice S180 sarcoma, 60 mg/kg orally for 9 days
# Method: Experimental therapeutic action of the compound in the present invention on S180 sarcoma mice
# 18-25 g female ICR mice and well grown 7-11 day old mice sarcoma S180 tumor seeds were selected, and the seeds were inoculated into the subcutaneous at the right axillary. After inoculated 24 hours, these mice were randomly divided into cages and orally administrated 60 mg/kg for 9 days. On 10 day, the animals were killed and weighed, and the tumor weights were weighed to calculate average tumor weight in each group, followed by calculating the tumor inhibition rate according to the following formula and T test.
# [8] = test system: Human colon cancer HT-29 transplantable tumor; assay: Human colon cancer HT-29 transplantable tumor in nude mice; conditions: for Relative tumor reproduction rate T/C (%): HT-29 in nude mice
# Method: Experimental therapeutic action of the compound in the present invention on Human colon cancer HT-29 transplantable tumor in nude mice.
# Take eugenic tumor tissues and cut into about 1.5 mm^3, and then incoculate subcutaneously at the right armpit of nude mice under the sterile conditions. The diameter of the transplantable tumor in nude mice was determined with a vernier caliper, and the animals were divided into groups after the tumors were grown to 100-300 mm^3. Using the method of measuring the tumor diameter, dynamically observe the antitumor effects of tested materials. The diameter of the tumor was determined three times every week and the mouse weight was weighed at the same time. […] The solvent was intragastrically administrated as the control for continuous 9 times. Equal amount of control was administrated in the negative control group.
# Tumor volume (TV) is calculated as: TV=½×a×b^2, wherein a and b respectively represent length and width.
# Relative tumor volume (RTV) is calculated as: RTV=TVt/TV0, wherein TV0 is the tumor volume when administrated according to different cages and TVt is the tumor volume measured each time.
# Relative tumor reproduction rate T/C (%) is calculated as follows:
# TRTV: RTV in the treatment group; CRTV: RTV in the negative control group.
# The test results used relative tumor reproduction rate T/C (%) as evaluating indicator of anti-tumor activity.
# [9] = Final concentration 1 x 1.0*10^(−5) mol/L
SMILES,Inhibition rate % on raf kinase (Raf-1(truncated)),"Inhibition rate, growth of human lung cancer cell A549 [1]","Inhibition rate, 95D cell strain migration [2]","Inhibition rate, adhesion ability of human lung cancer cell A549 (lung cancer cell A549)","Inhibition rate, growth of HUVEC cell [3]","Inhibition rate, lumen formation ability of HUVEC [4]",Relative tumor reproduction rate T/C (%) on human lung cancer A549 transplantation tumor in nude mice [5],Relative tumor reproduction rate T/C (%) on human liver cancer cell bel-7402 transplantation tumor model in nude mice [6],Relative tumor reproduction rate T/C (%) on human renal carcinoma GCR-1 cell transplanted tumor model in nude mice [7],Tumor growth inhibition rate (%) (mice S180 sarcoma),Relative tumor reproduction rate T/C (%) ([8]; 60 mg/kg ig 9 times),"Inhibition rate, growth of human lung cancer cell A549 [1, 9]",also measured
"O=C(Nc1ccc(Oc2ncnc3cc(F)ccc23)cc1)Nc1ccc(Br)c(C(F)(F)F)c1 [Compound 21, N-(4-bromo-3-(trifluoromethyl)phenyl)-N′-(4-(4-(7 fluoroquinazolinyl)oxy)phenyl)urea]",98.9%,89.21%,88.76%,90.22%,11.21%,89.47%,13.7%,16.4%,7.8%,59.7%,38.7%,,
"CNC(=O)c1cc(Oc2ccc(NC(=O)Nc3ccc(Cl)c(C(F)(F)F)c3)cc2)ccn1 [Sorafenib, reference compound]",85.7%,54.60%,62.32%,72.66%,22.61%,55.60%,,,,,,,"Mortality of the animals [5]: no mortality; Mortality of the animals [6]: no mortality; Mortality of the animals [7]: no mortality; Tumor weight x ± SD (mice S180 sarcoma; 60 mg/kg ig for 9 days, day 10): 0.71 ± 0.30 g; Tumor growth inhibition rate (%) (mice S180 sarcoma; 60 mg/kg): 55.9%; Tumor growth inhibition rate (%) (mice S180 sarcoma; listed as Sora, 60 mg/kg): 55.9%; Weight (g) d0 ([8]; nude mouse body weight d0, 60 mg/kg): 19.9 ± 1.1 g; Weight (g) d13 ([8]; nude mouse body weight d13, 60 mg/kg ig 9 times): 20.4 ± 1.4 g; RTV ([8]; relative tumor volume, 60 mg/kg ig 9 times): 2.36 ± 0.57; TV d0 ([8]; tumor volume d0, 60 mg/kg): 133 ± 33; TV d13 ([8]; tumor volume d13, 60 mg/kg ig 9 times): 308 ± 86"
"CNC(=O)c1nc(Oc2ccc(NC(=O)Nc3ccc(Br)c(C(F)(F)F)c3)cc2)c2ccc(F)cc2n1 [Compound 6, N-(4-bromo-3-(trifluoromethyl)phenyl)-N′-(4-(2-(N-methylaminoformoxyl)-4-(7 fluoroquinazolinyl)oxy)phenyl)urea]",80.1%,,93.71%,93.59%,7.50%,90.55%,15.9%,19.5%,12.5%,51.2%,39.58%,92.50%,
"CNC(=O)c1ncc(Oc2ccc(NC(=O)Nc3ccc(F)c(C(F)(F)F)c3)cc2)c2ccc(N)cc12 [Compound 11, N-(4-fluoro-3-(trifluoromethyl)phenyl)-N′-(4-(2-(N-methylaminoformoxyl)-4-(7-amino-isoquinolyl)oxy)phenyl)urea]",11.2%,,78.66%,59.63%,29.20%,79.63%,43.7%,23.7%,32.1%,54.2%,81.2%,69.20%,

# Reference: US8957087B2, “Heterocyclic substituted acardite derivate and application thereof” (Jiangsu Provincial Institute of Materia Medica Co., Ltd., priority 2009, dated 2015)
